This is an account of results in PubChem BioAssay (NCI).

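Step 1: Grow cells in 96-well plates. Step 2: Expose to compound for 48 hours at 5 concentrations. Step 3: Interpolate endpoints linearly; if unreached, use highest concentration. The concentration for 50% growth inhibition is given as GI50. TGI marks complete inhibition of growth.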

Experiment in all cases: inhibition of tumour cell growth, NCI panel, 48 h
Experiment [1] deals with HCT-116 colon.
For experiment [2], the system named is HCT-15 colon.
The test system of experiment [3] is HT29 colon.
Experiment [4] deals with K-562 leukemia.
Experiment [5] deals with MALME-3M melanoma.
The subject of experiment [6] is MDA-MB-231 breast.
Experiment [7] relates to MDA-MB-435.
Experiment [8] has as its system MOLT-4 leukemia.
In experiment [9] the test system is NCI-H522 lung.
For experiment [10], the system named is OVCAR-8 ovarian.
Experiment [11] relates to MCF7 breast.

On to `CCOC(=O)c1cnc(-n2[nH]c3c(c2=O)CCCC3)[nH]c1=O`, for which the TGI in [1], in [2], in [3], in [4], in experiment [5] and in experiment [6] was more than 100 µM each time. Further, the TGI in experiment [7], in [8], in experiment [9] and in [10] was more than 100 µM in each case.

Regarding `O=C=NCCCCCCN1C(=O)N2C(c3ccccc3)N(CCCCCCN=C=O)C(=O)N2C1c1ccccc1` (centres undefined), the TGI in experiment [1], in experiment [2], in experiment [3], in [4], in experiment [5] and in [11] was more than 100 µM each time. Moreover, the TGI in [6], in [7], in experiment [8] and in experiment [10] was more than 100 µM in each case.

`CCS(=O)(=O)CCn1cnc2c1c(=O)n(C)c(=O)n2C`: the TGI in [1], in experiment [2], in experiment [3], in experiment [4], in experiment [11] and in [6] was more than 100 µM each time. Besides, the TGI in experiment [7], in experiment [8], in [9] and in [10] was more than 100 µM each time.

Consider `Cc1c2c(n(CCN(C)C)c1C)NN=C(C#N)S2(=O)=O`, for which the TGI in [1], in experiment [2], in experiment [3], in [4], in experiment [5] and in [11] was more than 100 µM each time. Moreover, the TGI in [6], in [7], in experiment [8] and in [10] was more than 100 µM in each case.

As to `O=C(O)CCCOc1cc(-c2ccccc2F)nc2cc3c(cc12)OCO3`, the GI50 in [1] is 3.99 µM. For the same compound, the TGI in [1], in experiment [2], in [3], in experiment [5], in [11] and in experiment [6] was more than 100 µM each time. Also, the TGI in experiment [7] is more than 100 µM; in experiment [8] it was 71.3 µM; in [10] it was more than 100 µM.

Regarding `Cc1ccsc1/C=N/Nc1nncc2ccccc12`, the TGI in experiment [1], in experiment [2], in experiment [3], in experiment [4], in [11] and in [6] was more than 100 µM throughout. Further, the TGI in [7], in [8] and in experiment [10] was more than 100 µM throughout.

As for `Nc1nc(Cl)c2nnn(CC3CCC(CO)C3)c2n1` (centres undefined), the TGI in experiment [1], in experiment [2], in experiment [4], in experiment [11], in [6] and in experiment [7] was more than 100 µM throughout.

Regarding `O=C(O)c1oc(C(=O)O)c(C(=O)O)c1C(=O)O`, the TGI in experiment [1], in [2], in experiment [3], in [4], in [5] and in experiment [6] was more than 100 µM throughout. The TGI in experiment [8], in experiment [9] and in experiment [10] was more than 100 µM each time.

For `O=C1/C(=C/c2ccc(Cl)cc2)N=C(c2ccccc2)N1c1ccc(S(=O)(=O)Nc2nccs2)cc1`, the TGI was more than 100 µM in experiment [1]; more than 100 µM in [2]; 56.3 µM in [3]; more than 100 µM in experiment [4]; more than 100 µM in [5]; 82.9 µM in experiment [11]. Moreover, the TGI in experiment [6] amounted to 55.9 µM; in experiment [7] it was 76.4 µM; in experiment [8], 83.2 µM.

As to `O=C(Nc1ccccc1F)c1cc2ccc(O)cc2oc1=Nc1cccc(C(F)(F)F)c1`, the TGI is 18.1 µM in [1]; 10.9 µM in experiment [2]; more than 100 µM in experiment [3]; more than 100 µM in experiment [4]; 34.9 µM in experiment [5]; more than 100 µM in [11]. In addition, the TGI stood at 22.7 µM in experiment [7], 67.8 µM in experiment [8], 18.7 µM in experiment [9] and 5.27 µM in [10].

Consider `CN(C)C(=O)Oc1ccc(-c2cn3cc(NC(=O)c4ccccc4)ccc3n2)cc1`, for which the TGI in experiment [1], in experiment [2], in experiment [3], in experiment [4], in [11] and in [6] was more than 100 µM throughout. Further, the TGI in experiment [7], in [8], in [9] and in [10] was more than 100 µM in each case.

Take `COc1cc(O)c2c(=O)cc(C3(O)C=CC(=O)C=C3)oc2c1`: the TGI in experiment [2] was 1.11 µM; in experiment [4] it was 11.1 µM; in [11], 0.58 µM; in [6], 0.789 µM; in [8], more than 100 µM; in experiment [9], 0.113 µM. Besides, the TGI in experiment [10] was 0.586 µM.

Consider `CCCCCCCN1C(=O)C(O)(c2ccc(C3(O)C(=O)N(CCCCCCC)c4ccccc43)s2)c2ccccc21` (centres undefined), for which the TGI was determined as 3.18 µM in experiment [1]; 4.42 µM in experiment [2]; 3.28 µM in [3]; 7.67 µM in experiment [4]; 5.7 µM in [11]; 4.12 µM in [6]. Moreover, the TGI was determined as 3.87 µM in [7], 4.16 µM in [8] and 4.41 µM in experiment [10].

In the case of `NNc1[nH]c(=S)[nH]c1C(N)=O`, the TGI in experiment [1], in experiment [2], in experiment [3], in [5], in experiment [11] and in [6] was more than 100 µM throughout. For the same compound, the TGI in [7], in [8], in [9] and in experiment [10] was more than 100 µM in each case.

As for `CN(CCCNC(=O)c1nn(-c2ccc(Cl)cc2Cl)c2c1ccc1ccccc12)CCCNC(=O)c1nn(-c2ccc(Cl)cc2Cl)c2c1ccc1ccccc12`, the TGI in [1] was 3.07 µM; in experiment [2], 3.24 µM; in experiment [3] it was 3.04 µM; in experiment [4], 2.83 µM; in experiment [5], 3.58 µM; in experiment [11], 2.9 µM. For the same compound, the TGI in [6] was 3.23 µM; in [7] it was 3.23 µM; in experiment [8], 3.63 µM; in experiment [9], 2.83 µM.

Turning to `O=C1/C(=C/c2ccco2)N=C(c2ccccc2)N1c1cc2cc(Sc3ccccc3)ccc2[nH]1`, the TGI in experiment [1], in experiment [2], in experiment [3], in experiment [4], in experiment [5] and in experiment [11] was more than 25 µM each time. Also, the TGI in experiment [7], in experiment [8], in experiment [9] and in experiment [10] was more than 25 µM in each case.

Take `COc1ccc([C@@]23OC[C@@H]4[C@@H](OC[C@@H]42)c2cc(OC)c(OC)cc23)cc1OC`: the TGI in [1], in experiment [2], in [4], in experiment [5], in [11] and in experiment [6] was more than 100 µM each time. Further, the TGI in experiment [7], in experiment [8] and in [9] was more than 100 µM throughout.

Consider `C=CC[C@@H]1C(=O)[C@@]2(O[Si](C(C)C)(C(C)C)C(C)C)CC[C@@H]1C[C@H]2NC(=O)OCC(Cl)(Cl)Cl`, for which the TGI in experiment [1], in [2], in experiment [3], in experiment [4], in experiment [7] and in experiment [8] was more than 100 µM throughout. The TGI was 0.0356 µM in experiment [9] and more than 100 µM in experiment [10].

`Cc1ccc(S(=O)(=O)Oc2nc3ccccc3nc2N(S(=O)(=O)c2ccc(C)cc2)S(=O)(=O)c2ccc(C)cc2)cc1`: the TGI in experiment [1], in [2], in experiment [3], in [5], in experiment [11] and in [6] was more than 100 µM in each case. The TGI in experiment [7], in experiment [8], in experiment [9] and in experiment [10] was more than 100 µM throughout.

In the case of `COc1cc2c(cc1OC)C(N)CC2=O` (centres undefined), the TGI in experiment [1], in [2], in [3], in [4], in [11] and in [6] was more than 100 µM throughout. Moreover, the TGI in experiment [7], in experiment [8], in experiment [9] and in [10] was more than 100 µM in each case.

With `O=c1[nH]n(Cc2ccccn2)c2ccc([N+](=O)[O-])cc12`, the TGI in experiment [1], in [2], in experiment [3], in [4], in experiment [5] and in experiment [6] was more than 100 µM in each case. Moreover, the TGI in experiment [8], in experiment [9] and in experiment [10] was more than 100 µM in each case.

For the compound `Cc1cc(OCC(=O)N/N=C/C(Br)=C/c2ccccc2)nc(SCC(=O)N/N=C/C(Br)=C/c2ccccc2)n1`, the TGI in [1], in [2], in [3], in experiment [4], in experiment [11] and in [7] was more than 100 µM each time. The compound also gave a TGI in experiment [9] of more than 100 µM.

Regarding `C=C(Cl)C(=C)CCC(Cl)C(C)C` (centres undefined), the TGI in experiment [1], in [3], in experiment [4], in experiment [5], in [11] and in [6] was more than 100 µM in each case. Moreover, the TGI in experiment [7], in [8] and in experiment [9] was more than 100 µM in each case.

As for `O=C(/C=C/c1ccc(O)c(O)c1O)OCCc1ccccc1`, the TGI in experiment [1] is 26.3 µM; in experiment [2], 51.9 µM; in [3] it was 53.4 µM; in experiment [4], 37.3 µM; in experiment [5], more than 100 µM; in experiment [11], 32.2 µM. In addition, the TGI in experiment [6] is 47.3 µM; in [7], 36.2 µM; in [8] it was 53.8 µM; in experiment [9] it was 54.9 µM.

On to `COC(=O)c1ccccc1/C=C1\Cc2cc(C)c(C)cc2C1=O`, for which the TGI in [1], in [2], in experiment [3], in experiment [4], in experiment [5] and in experiment [11] was more than 100 µM each time. The TGI in experiment [7], in experiment [8], in [9] and in experiment [10] was more than 100 µM in each case.

For the compound `Cc1ccc(S(=O)(=O)N2CCCC2C(=O)O[C@H]2CC[C@H]3CC=C[C@H]32)cc1` (some centres undefined), the TGI was more than 31.6 µM in experiment [1]; more than 100 µM in experiment [3]; 78.9 µM in experiment [4]; more than 100 µM in experiment [5]; 78.8 µM in experiment [11]; more than 100 µM in [6]. The TGI was more than 100 µM in [7], 33.4 µM in experiment [8] and more than 100 µM in experiment [10].

Take `CC1(C)CC(=O)c2c(nc(SSc3nc4c(c(-c5ccccc5)c3C#N)C(=O)CC(C)(C)C4)c(C#N)c2-c2ccccc2)C1`: the TGI in [1], in experiment [2], in [3], in experiment [4], in experiment [5] and in experiment [11] was more than 10 µM each time. In addition, the TGI in [8], in [9] and in experiment [10] was more than 10 µM throughout.

Consider `COc1ccc(Cc2nccc3cc(OC)c(OC)cc23)cc1OC`, for which the TGI in experiment [1], in [2], in [3], in [4], in experiment [11] and in experiment [6] was more than 100 µM each time. Besides, the TGI in [7], in experiment [8], in experiment [9] and in [10] was more than 100 µM in each case.
